The source of these data is patent US20240174625A1, “COMPOSITIONS AND METHODS FOR TREATING TAUOPATHIES” (The Regents of the University of California, priority 2021, published 2024).

The structures appear in SMILES notation.

One test deals with T1, NPEPPS (Homo sapiens, UniProt P55786).
T1 construct: endogenous in cells; host or cells: HEK293T
Put plainly: Cellular thermal shift assay (CETSA) in HEK293T cell lysates. The following applies: concentration-dependent. The test is classed as binding. Here is the method:
Cellular thermal shift analysis (CETSA) was conducted at Pelago Bioscience. Briefly, HEK293T cells were harvested and suspended in an experimental Buffer B (20 mM HEPES, 138 mM NaCl, 5 mM KCl, 2 mM CaCl2), 1 mM MgCl2, pH7.4) at a density of 4×10^7 cells/ml. Cell suspension was lysed by three rounds of freeze-thaw cycles with liquid nitrogen and clarified at 20,000 g for 20 min at 4° C. Compounds diluted to 2× final concentration (final solution contains 1% DMSO) in Buffer B were added to equal volume of clarified cell lysates and incubated at 37° C. for 30 min with continuous rotation. 1% DMSO was used as a negative control in parallel. The treated cell lysates were then divided into 60 μl aliquots and subjected to a 12-step heat challenge between 50° C. and 62° C. for 3 min. For the concentration-dependent analyses, clarified cell lysates in 30 aliquots were mixed with an equal volume of compounds or DMSO in Buffer B at 2× intended compound concentration and incubated at 37° C. for 30 min with continuous rotation. JMM001-treated lysates were then heat challenged at 59° C. as determined from its corresponding cellular thermal shift curve. All treated lysates were immediately centrifugated at 20,000 g for 20 min at 4° C. prior to immunoblotting analysis. […] The obtained intensities were plotted as the luminescence count normalized to a relevant temperature or control count as specified.

The test system of test [1] is rhodopsin::EGFP-MAPT transgenic zebrafish expressing the Tau^P301L mutation. Put plainly: Photoreceptor neurodegeneration in a zebrafish model of tauopathy. Type of test: in vivo. The method, then:
The rhodopsin::EGFP-MAPT transgenic zebrafish expressing the Tau^P301L mutation is generated and maintained as previously described^22,23. Tau^P301L expression is restricted to the rods of the retina. Photoreceptor image and quantification in central retina sections in the region of the optic nerve head is performed as previously described^2223.

For another test, the system named is Huntingtin. Put plainly: Huntingtin protein level in human primary cortical neurons. The test is classed as cell-based. The following applies: 50 μM, 48 hrs. Here is the method:
FIG. 11. Potential applications of NPEPPS enhancer JMM series on other neurodegenerative diseases. JMM001 (Cp 1) at 50 μM reduces protein levels of huntingtin (htt), SOD1, ataxin, and alpha-synuclein in human primary cortical neurons. Neurons were treated with 50 μM JMM001 or 10 uM bestatin for 48 hrs. N=3-4±SEM.

T1 sequence (P55786 whole entry): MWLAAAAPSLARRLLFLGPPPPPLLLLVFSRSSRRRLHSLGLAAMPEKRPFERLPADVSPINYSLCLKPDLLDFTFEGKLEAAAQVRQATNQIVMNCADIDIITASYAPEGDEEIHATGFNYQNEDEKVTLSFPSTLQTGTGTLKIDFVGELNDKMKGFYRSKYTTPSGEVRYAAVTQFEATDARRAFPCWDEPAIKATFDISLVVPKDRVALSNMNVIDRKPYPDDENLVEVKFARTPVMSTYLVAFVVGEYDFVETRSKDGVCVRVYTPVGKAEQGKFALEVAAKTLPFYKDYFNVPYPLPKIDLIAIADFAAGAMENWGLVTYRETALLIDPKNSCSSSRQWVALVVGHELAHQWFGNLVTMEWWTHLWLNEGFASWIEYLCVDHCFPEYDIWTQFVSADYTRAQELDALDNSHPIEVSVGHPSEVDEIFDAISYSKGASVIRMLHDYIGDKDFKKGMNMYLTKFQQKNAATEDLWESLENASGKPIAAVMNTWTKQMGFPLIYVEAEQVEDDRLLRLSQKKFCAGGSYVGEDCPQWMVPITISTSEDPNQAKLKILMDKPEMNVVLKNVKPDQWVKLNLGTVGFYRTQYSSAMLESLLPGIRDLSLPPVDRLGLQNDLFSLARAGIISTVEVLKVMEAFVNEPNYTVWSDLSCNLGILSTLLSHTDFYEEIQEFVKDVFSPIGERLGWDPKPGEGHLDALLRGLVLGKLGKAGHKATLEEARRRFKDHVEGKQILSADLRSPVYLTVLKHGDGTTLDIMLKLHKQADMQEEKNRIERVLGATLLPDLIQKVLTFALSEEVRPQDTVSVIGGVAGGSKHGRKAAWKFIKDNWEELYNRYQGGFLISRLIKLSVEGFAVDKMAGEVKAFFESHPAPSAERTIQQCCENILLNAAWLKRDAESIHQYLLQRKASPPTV

For `COc1ccc(CNc2nsc3ccccc23)cc1OC` [JMM001], the “thermal shift of NPEPPS” value at NPEPPS is on record as “significant thermal shift”. For the same molecule, in test [1] (0.01 and 0.03 μM, compared to DMSO control), the photoreceptor degeneration result is given as “rescue”. Also, the retinal photoreceptor degeneration entry in test [1] (0.01 and 0.05 μM) is on record as “rescued”. The “protein level of Huntingtin” value with Huntingtin was “reduces”.
